# In ChEMBL document CHEMBL3885861, “Open TG-GATES”:
# Organism: Rattus norvegicus
# Assay: Open TG-GATES - Regimen: Single
# Assay type: toxicity, organism-based, Sprague-Dawley
# Set-up: regimen Single, gender Male, age 6 weeks
# Settings: in vivo, po, 100 mg/kg, route gavage; for APTT / Bas / Eos / Fbg / Hb / Ht / Lym / MCH / MCHC / MCV / Mono / Neu / PT / Plat / RBC / Ret / WBC: tissue Blood; for KIDNEY_L / KIDNEY_R / KIDNEY_TOTAL: tissue Kidney; for LIVER: tissue Liver; for A/G / ALP / ALT / AST / BUN / CRE / Ca / Cl / DBIL / GLC / IP / K / LDH / Na / PL / RALB / TBIL / TC / TG / TP / gamma-GTP: tissue Plasma
structure (smiles),measurement,setting,value
O=C1CN(/N=C/c2ccc([N+](=O)[O-])o2)C(=O)N1 [NITROFURANTOIN],TERMINAL_BW,"6 h, dose level Low",199.6 g
same,APTT,"6 h, dose level High",18.6 s
same,Bas,"6 h, dose level High",0%
same,Eos,"6 h, dose level High",1%
same,Fbg,"6 h, dose level High",216.6 mg/dL
same,Hb,"6 h, dose level High",13.3 g/dL
same,Ht,"6 h, dose level High",38%
same,Lym,"6 h, dose level High",73%
same,MCH,"6 h, dose level High",21.6 pg
same,MCHC,"6 h, dose level High",35%
same,MCV,"6 h, dose level High",61.7 fL
same,Mono,"6 h, dose level High",3.2%
same,Neu,"6 h, dose level High",21.4%
same,PT,"6 h, dose level High",12.9 s
same,Plat,"6 h, dose level High",122 x10_4/uL
same,RBC,"6 h, dose level High",615 x10_4/ul
same,Ret,"6 h, dose level High",7.7%
same,WBC,"6 h, dose level High",113.2 x10_2/uL
same,APTT,"6 h, dose level Low",16.4 s
same,Eos,"6 h, dose level Low",1.2%
same,Fbg,"6 h, dose level Low",215.8 mg/dL
same,Hb,"6 h, dose level Low",13.4 g/dL
same,Ht,"6 h, dose level Low",40.6%
same,Lym,"6 h, dose level Low",74.6%
same,MCH,"6 h, dose level Low",21.3 pg
same,MCHC,"6 h, dose level Low",32.9%
same,MCV,"6 h, dose level Low",64.5 fL
same,Mono,"6 h, dose level Low",6.8%
same,Neu,"6 h, dose level Low",17.8%
same,PT,"6 h, dose level Low",11.7 s
same,Plat,"6 h, dose level Low",121.5 x10_4/uL
same,RBC,"6 h, dose level Low",629.8 x10_4/ul
same,Ret,"6 h, dose level Low",7%
same,WBC,"6 h, dose level Low",89.8 x10_2/uL
same,KIDNEY_L,"6 h, dose level High",1 g
same,KIDNEY_R,"6 h, dose level High",1 g
same,KIDNEY_TOTAL,"6 h, dose level High",2 g
same,KIDNEY_L,"6 h, dose level Low",0.9 g
same,KIDNEY_R,"6 h, dose level Low",0.9 g
same,KIDNEY_TOTAL,"6 h, dose level Low",1.8 g
same,LIVER,"6 h, dose level High",9.4 g
same,LIVER,"6 h, dose level Low",8.3 g
same,A/G,"6 h, dose level High",1.5
same,ALP,"6 h, dose level High",745.6 IU/L
same,ALT,"6 h, dose level High",32.2 IU/L
same,AST,"6 h, dose level High",64.6 IU/L
same,BUN,"6 h, dose level High",10.6 mg/dL
same,CRE,"6 h, dose level High",0.4 mg/dL
same,Ca,"6 h, dose level High",10.6 mg/dL
same,Cl,"6 h, dose level High",103.8 meq/L
same,DBIL,"6 h, dose level High",0.078 mg/dL
same,GLC,"6 h, dose level High",184.4 mg/dL
same,IP,"6 h, dose level High",8.9 mg/dL
same,K,"6 h, dose level High",4.2 meq/L
same,LDH,"6 h, dose level High",211 IU/L
same,Na,"6 h, dose level High",140.8 meq/L
same,PL,"6 h, dose level High",135.4 mg/dL
same,RALB,"6 h, dose level High",3.3 g/dL
same,TBIL,"6 h, dose level High",0.1 mg/dL
same,TC,"6 h, dose level High",78.8 mg/dL
same,TG,"6 h, dose level High",55 mg/dL
same,TP,"6 h, dose level High",5.5 g/dL
same,gamma-GTP,"6 h, dose level High",1.2 IU/L
same,A/G,"6 h, dose level Low",2.2
same,ALP,"6 h, dose level Low",1217 IU/L
same,AST,"6 h, dose level Low",66 IU/L
same,BUN,"6 h, dose level Low",13.6 mg/dL
same,Ca,"6 h, dose level Low",11 mg/dL
same,Cl,"6 h, dose level Low",104.6 meq/L
same,DBIL,"6 h, dose level Low",0.008 mg/dL
same,GLC,"6 h, dose level Low",190.8 mg/dL
same,IP,"6 h, dose level Low",8.7 mg/dL
same,K,"6 h, dose level Low",4.6 meq/L
same,LDH,"6 h, dose level Low",92.2 IU/L
same,Na,"6 h, dose level Low",139.4 meq/L
same,PL,"6 h, dose level Low",150.8 mg/dL
same,RALB,"6 h, dose level Low",3.9 g/dL
same,TBIL,"6 h, dose level Low",0.036 mg/dL
same,TC,"6 h, dose level Low",100 mg/dL
same,TG,"6 h, dose level Low",44 mg/dL
same,TP,"6 h, dose level Low",5.7 g/dL
same,gamma-GTP,"6 h, dose level Low",0.4 IU/L
same,TERMINAL_BW,"9 h, dose level High",213.9 g
same,TERMINAL_BW,"9 h, dose level Low",211 g
same,APTT,"9 h, dose level High",19.3 s
same,Bas,"9 h, dose level High",0%
same,Eos,"9 h, dose level High",1%
same,Fbg,"9 h, dose level High",245.8 mg/dL
same,Hb,"9 h, dose level High",13.1 g/dL
same,Ht,"9 h, dose level High",37.3%
same,Lym,"9 h, dose level High",75.4%
same,MCH,"9 h, dose level High",21.5 pg
same,MCHC,"9 h, dose level High",35.2%
same,MCV,"9 h, dose level High",61.1 fL
same,Mono,"9 h, dose level High",2.6%
same,Neu,"9 h, dose level High",19.8%
same,PT,"9 h, dose level High",12.9 s
same,Plat,"9 h, dose level High",126.6 x10_4/uL
same,RBC,"9 h, dose level High",609.4 x10_4/ul
same,Ret,"9 h, dose level High",8%
same,WBC,"9 h, dose level High",77.1 x10_2/uL
same,APTT,"9 h, dose level Low",19 s
same,Eos,"9 h, dose level Low",1.2%
same,Fbg,"9 h, dose level Low",229.2 mg/dL
same,Hb,"9 h, dose level Low",12.7 g/dL
same,Ht,"9 h, dose level Low",39%
same,Lym,"9 h, dose level Low",65.6%
same,MCH,"9 h, dose level Low",20.8 pg
same,MCHC,"9 h, dose level Low",32.7%
same,MCV,"9 h, dose level Low",63.6 fL
same,Mono,"9 h, dose level Low",9.2%
same,Neu,"9 h, dose level Low",24.4%
same,PT,"9 h, dose level Low",12.3 s
same,Plat,"9 h, dose level Low",124.9 x10_4/uL
same,RBC,"9 h, dose level Low",612.8 x10_4/ul
same,Ret,"9 h, dose level Low",6.7%
same,WBC,"9 h, dose level Low",65.8 x10_2/uL
same,KIDNEY_L,"9 h, dose level High",1 g
same,KIDNEY_R,"9 h, dose level High",1 g
same,KIDNEY_TOTAL,"9 h, dose level High",2 g
same,KIDNEY_R,"9 h, dose level Low",0.9 g
same,KIDNEY_TOTAL,"9 h, dose level Low",1.9 g
same,LIVER,"9 h, dose level High",9.3 g
same,LIVER,"9 h, dose level Low",9.4 g
same,A/G,"9 h, dose level High",1.5
same,ALP,"9 h, dose level High",749 IU/L
same,ALT,"9 h, dose level High",33.2 IU/L
same,AST,"9 h, dose level High",62 IU/L
same,BUN,"9 h, dose level High",11 mg/dL
same,CRE,"9 h, dose level High",0.3 mg/dL
same,Ca,"9 h, dose level High",10.7 mg/dL
same,Cl,"9 h, dose level High",103.4 meq/L
same,DBIL,"9 h, dose level High",0.07 mg/dL
same,GLC,"9 h, dose level High",191.8 mg/dL
same,IP,"9 h, dose level High",9.6 mg/dL
same,K,"9 h, dose level High",4 meq/L
same,LDH,"9 h, dose level High",219.8 IU/L
same,Na,"9 h, dose level High",141.2 meq/L
same,PL,"9 h, dose level High",146.6 mg/dL
same,RALB,"9 h, dose level High",3.2 g/dL
same,TBIL,"9 h, dose level High",0.1 mg/dL
same,TC,"9 h, dose level High",82.2 mg/dL
same,TG,"9 h, dose level High",42.2 mg/dL
same,TP,"9 h, dose level High",5.5 g/dL
same,gamma-GTP,"9 h, dose level High",1.2 IU/L
same,A/G,"9 h, dose level Low",2.1
same,ALP,"9 h, dose level Low",1192 IU/L
same,ALT,"9 h, dose level Low",30.2 IU/L
